{
  "source": "patent US20220251187A1",
  "about": "“P2X7 RECEPTOR TARGETED THERAPY” (BIOSCEPTRE (AUST) PTY LTD, priority 2019, published 2022)",
  "molecules": {"B1": {"name": "HMGB1: DAMP released by chemo- and radio-therapy (protein, UniProt P09429 1-215, looked up)", "High mobility group protein B1": "MGKGDPKKPRGKMSSYAFFVQTCREEHKKKHPDASVNFSEFSKKCSERWKTMSAKEKGKFEDMAKADKARYEREMKTYIPPKGETKKKFKDPNAPKRPPSAFFLFCSEYRPKIKGEHPGLSIGDVAKKLGEMWNNTAADDKQPYEKKAAKLKEKYEKDIAAYRAKGKPDAAKKGVVKAEKSKKKKEEEEDEEDEEDEEEEEDEEDEDEEEDDDDE"}},
  "assay_type_in_all_cases": "cell-based",
  "key": {"Kelly cells [1]": {"test_system": "Kelly cells", "assay": "CellTiter-Blue cell viability assay after chemotherapy", "settings": "increasing doses, 72 hours, FIG. 1C, 1D", "protocol": "(§1) 4,000 cells were seeded in a 96 well plate and allowed to adhere over-night. Cells were then treated with increasing amount of chemotherapy or vehicle control for 72 hours to induce varying amount of cell killing. Cell viability was then measured using CellTiter-Blue Cell Viability Assay form Promega following manufacturer's instruction."}, "Kelly cells [2]": {"test_system": "Kelly cells", "assay": "nfP2X7 antibody binding to live cells by flow cytometry after chemotherapy", "settings": "doxorubicin 0.0625 μM to 0.25 μM or 5 Fu 1 μM to 8 μM, 72 hours, FIG. 2B, 2C", "protocol": "(§2) 500,000 cells were seeded in a 6 well plate and allowed to adhere over-night. Cells were then treated with increasing amount of chemotherapy or vehicle control for 72 hours to induce varying amount of cell killing. The remaining live cells were dissociated in PBS based enzyme-free dissociation buffer, washed and re-suspended in staining buffer (PBS, 2% FCS). Cells were then stained for 1 h with primary antibody raised against non-functional P2X7 (here 2-2-1hFc), washed 3 times in staining buffer prior to a 1 h incubation with fluorescently coupled secondary antibody and 7AAD. Fluorescence staining on live cells was acquired using a BD Accuri flow cytometer and analysed with FlowJo-flow cytometry analysis software. Median fluorescence intensity of the live cell population was analysed using 7AAD live dead staining."}, "P2X7 receptor": {"test_system": "P2X7 receptor", "assay": "nfP2X7 induction by Condition Media from Doxorubicin treated RPMI-8226 cells with P2X7 inhibitor", "settings": "Condition Media from RPMI-8226 treated with Doxorubicin; FIG. 6b"}, "[3]": {"test_system": "myeloma RPMI-8226 cell line", "assay": "Ethidium influx in response to BzATP stimulation (P2X7 pore opening)", "settings": "0.5 mM BzATP, FIG. 1A", "protocol": "Normalised ethidium influx in response to 0.5 mM BzATP stimulation in the myeloma RPMI-8226 and neuroblastoma Kelly cell lines. Mean of three independent experiments is shown."}, "RPMI-8226 cells [4]": {"test_system": "RPMI-8226 cells", "assay": "CellTiter-Blue cell viability assay after chemotherapy", "settings": "increasing doses, 72 hours, FIG. 1B", "protocol": "as §1"}, "RPMI-8226 cells [5]": {"test_system": "RPMI-8226 cells", "assay": "nfP2X7 antibody binding to live cells by flow cytometry after chemotherapy", "settings": "doxorubicin 0.0625 μM to 0.25 μM, 72 hours, FIG. 2A", "protocol": "as §2"}, "nfP2X7": {"test_system": "nfP2X7", "assay": "HMGB1-driven increase in nfP2X7", "settings": "FIG. 6a"}},
  "data": [
    {"molecule": "O=c1[nH]cc(F)c(=O)[nH]1", "note": "[5 Fu, Fluorouracil]", "values": [
      {"measurement": "Effect on cell viability (CTB assay)", "setting": "Kelly cells [1]", "value": "cell death"},
      {"measurement": "Effect on nfP2X7 antibody binding to live cells", "setting": "Kelly cells [2]", "value": "increased nfPX7 antibody binding"}
    ]},
    {"molecule": "COc1ccc(CC(=O)NC(N=C(NC#N)Nc2cccc3ncccc23)C(C)(C)C)cc1OC", "note": "(stereo not drawn) [A 740003, N-[1-[[(Cyanoamino)(5-quinolinylamino)methylene]amino]-2,2-dimethylpropyl]-3,4-dimethoxybenzeneacetamide]", "values": [
      {"measurement": "Block of conditioned media induced nfP2X7 induction", "setting": "P2X7 receptor", "value": "does not block"}
    ]},
    {"molecule": "Nc1ncnc2c1ncn2[C@@H]1O[C@H](COP(=O)(O)OP(=O)(O)OP(=O)(O)O)[C@@H](OC(=O)c2ccc(C(=O)c3ccccc3)cc2)[C@H]1O", "note": "[BzATP]", "values": [
      {"measurement": "P2X7 pore opening (normalised ethidium influx)", "setting": "[3]", "value": "able to open the P2X7 pore"}
    ]},
    {"molecule": "COc1cccc2c1C(=O)c1c(O)c3c(c(O)c1C2=O)C[C@@](O)(C(=O)CO)C[C@@H]3O[C@H]1C[C@H](N)[C@H](O)[C@H](C)O1", "note": "[Doxorubicin]", "values": [
      {"measurement": "Effect on cell viability (CTB assay)", "setting": "Kelly cells [1]", "value": "cell death"},
      {"measurement": "Effect on cell viability (CTB assay)", "setting": "RPMI-8226 cells [4]", "value": "cell death"},
      {"measurement": "Effect on nfP2X7 antibody binding to live cells", "setting": "Kelly cells [2]", "value": "increased nfPX7 antibody binding"},
      {"measurement": "Effect on nfP2X7 antibody binding to live cells", "setting": "RPMI-8226 cells [5]", "value": "increased nfPX7 antibody binding"}
    ]},
    {"molecule": "B1", "values": [
      {"measurement": "Effect on nfP2X7 level", "setting": "nfP2X7", "value": "drives the increase in nfP2X7"}
    ]}
  ]
}
